Measured values reported in PubChem BioAssay AID1329 (NMMLSC, 2008).
Activity calls are given as the source filed them. No rule for the calls is given here.

Each compound was assayed against Induced myeloid leukemia cell differentiation protein Mcl-1 (Homo sapiens) (UniProt Q07820) (assay: modulators of Bim peptide binding to Mcl-1, dose response, biochemical, bead-based flow cytometry, multiplexed, human (AID 1329)). Details: Bim peptide-Mcl-1 binding, MCF.
Induced myeloid leukemia cell differentiation protein Mcl-1 (Homo sapiens), sequence (Q07820 whole entry, looked up): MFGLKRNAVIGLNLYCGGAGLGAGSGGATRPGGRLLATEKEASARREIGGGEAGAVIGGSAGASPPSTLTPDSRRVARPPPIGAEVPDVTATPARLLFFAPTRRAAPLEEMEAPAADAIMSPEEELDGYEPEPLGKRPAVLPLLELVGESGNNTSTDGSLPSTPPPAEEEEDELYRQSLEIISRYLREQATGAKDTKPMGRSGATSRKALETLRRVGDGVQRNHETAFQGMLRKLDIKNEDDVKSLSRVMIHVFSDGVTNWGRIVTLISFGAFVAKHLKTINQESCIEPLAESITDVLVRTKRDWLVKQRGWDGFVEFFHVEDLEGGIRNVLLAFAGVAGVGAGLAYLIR
With `COc1cc(/C=N/Nc2nn3cnnc3c3ccccc23)ccc1O` the EC50 was “inactive”.

Same assay, conditions: Bim peptide-Mcl-1 binding, MCF
With `COC(=O)c1[nH]c2ccccc2c1NC(=O)c1ccccc1[N+](=O)[O-]` the percent span was “inactive”. In the case of `COc1ccc(N2CCN(C(CNS(=O)(=O)c3ccc4c(c3)OCCO4)c3ccco3)CC2)cc1` (stereo unspecified), the percent span was “inactive”. `c1ccc(-c2nc(N3CCCCCC3)c3ccccc3n2)nc1` was tested, and the percent span was “inactive”. With `O=[N+]([O-])c1cccc(S(=O)(=O)NCC2CCCO2)c1` (stereo unspecified) the percent span was “inactive”. For `CC(C)n1nnnc1SCC(=O)N1CCN(C(=O)c2ccco2)CC1`, the percent span was “inactive”. `Cc1ccc(C2=N/C(=C/c3cccs3)C(=O)N2Nc2ccccc2)cc1` was tested, and the percent span was “inactive”. In the case of `COC(=O)c1cccc(-n2c(C)cc(C=O)c2C)c1`, the percent span was “inactive”. In the case of `CCOc1cc(S(=O)(=O)Nc2ccccn2)ccc1F`, the percent span was “inactive”. In the case of `CCCCN(C(=O)CCC(=O)Nc1cc(C)on1)C(C(=O)NC(C)(C)C)c1cccc(OC)c1OC` (stereo unspecified), the percent span was “inactive”. `COc1ccc2oc(-c3ccccc3)c(C(=O)N3CCOCC3)c2c1` was tested, and the percent span was “inactive”. `COc1ccc(NC(=O)c2ccc(CN3CCN(c4ccccc4)CC3)cc2)cc1` was tested, and the percent span was “inactive”. For `CCOc1ccc(C(=O)Nc2nnn(CC)n2)cc1`, the percent span was “inactive”. In the case of `CCOc1ccccc1NC(=O)CSc1ccc2nnc(-c3cccnc3)n2n1`, the percent span was “inactive”. In the case of `O=C(C1CCC(Cn2c(=S)[nH]c3ccccc3c2=O)CC1)N1CCN(c2ccccn2)CC1` (stereo unspecified), the percent span was “inactive”. `O=C(N/N=C/c1cccc([N+](=O)[O-])c1)c1cccs1` was tested, and the percent span was “inactive”. For `c1ccc2c(N3CCOCC3)nc(N3CCOCC3)nc2c1`, the percent span was “inactive”. In the case of `CCOc1c(Cl)cc(CNc2ccc(N3CCCC3)cc2)cc1OC`, the percent span was “inactive”. For `O=C(NCc1ccccc1)C(=O)Nc1nc(C23CC4CC(CC(C4)C2)C3)cs1`, the percent span was “inactive”. With `N=C1C(c2nc3ccccc3s2)=C(O)CN1Cc1ccccc1` the percent span was “inactive”. For `Cc1cc(Cl)c(S(=O)(=O)NCC2CCCO2)cc1OCC(N)=O` (stereo unspecified), the percent span was “inactive”. In the case of `CCCC(=O)OCCNc1cc(Sc2nccn2C)c2nonc2c1[N+](=O)[O-]`, the percent span was “inactive”. In the case of `COc1ccc(C2=Nn3c(nnc3-c3ccccn3)SC2)cc1OC`, the percent span was “inactive”. With `Cc1cc(NC(=O)CCCC(=O)N(CC(=O)NC2CCCCC2)c2ccccc2)no1` the percent span was “inactive”. `Cc1cc(/C=C(/C#N)C(=O)Nc2ccc(Cl)cc2)c(C)n1-c1cccnc1` was tested, and the percent span was “inactive”. With `Cc1ccc(-c2cc(C(=O)Nc3cccnc3)c3ccccc3n2)o1` the percent span was “inactive”. In the case of `O=C(Nc1ccc2nc(-c3ccco3)c(-c3ccco3)nc2c1)NC1CC1`, the percent span was “inactive”. For `COc1cc(N=c2ssnc2Cl)cc(OC)c1OC`, the percent span was “inactive”. `CC(C)CNC(=O)c1cccc(NC(=O)c2ccc(Cl)c([N+](=O)[O-])c2)c1` was tested, and the percent span was “inactive”. `Cc1ccc(NC(=S)N2CCn3cccc3C2c2cccnc2)cc1` (stereo unspecified) was tested, and the percent span was “inactive”. With `CNC(=S)N/N=C/C1=CCC2CC1C2(C)C` (stereo unspecified) the percent span was “inactive”. `Cc1cc(C)c2nc3nc(C)cc(C)c3c(N)c2c1` was tested, and the percent span was “inactive”. For `O=C(Nc1ccc(N2CCOCC2)cc1)Nc1ccc2nc(-c3ccco3)c(-c3ccco3)nc2c1`, the percent span was “inactive”. With `CCN1/C(=C/c2ccc3cc(C)ccc3[n+]2CC)Sc2cc(C)c(C)cc21` the percent span was “inactive”. In the case of `COc1cc(/C=C2\CC/C(=C\c3cc(OC)c(O)c(OC)c3)C2=O)cc(OC)c1O`, the percent span was “inactive”. In the case of `Nc1ccc(N2CCN(CCCCN3C(=O)C4CCCN4C3=O)CC2)cc1` (stereo unspecified), the percent span was “inactive”. `Cc1ccc(NC2=C(NC(=O)c3ccccc3)C(=O)c3ccccc3C2=O)cc1Cl` was tested, and the percent span was “inactive”. In the case of `O=[N+]([O-])c1ccc(N2CCN(c3ccc(O)cc3)CC2)c(Cl)c1`, the percent span was “inactive”. In the case of `Nc1cccc(-c2cn3cccnc3n2)c1`, the percent span was “inactive”. With `CCN(CC)C(=O)COC(=O)c1cc(-c2ccco2)nc2ccccc12` the percent span was “inactive”. With `COC(=O)C1C2c3ccccc3OC1(C)N=c1s/c(=C/c3cnn(C)c3C)c(=O)n12` (stereo unspecified) the percent span was “inactive”.
